Reference: ChEMBL document CHEMBL3045508, “Pharmacological Characteristics of Insect Nicotinic Acetyicholine Receptor with Its Ion Channel and the Comparison of the Effect of Nicotinoids and Neonicotinoids” (J Pestic Sci, 1995)
The source made the active and inactive calls. The calls are words filed in the database; no cut-off is given here.

Assays:
[1] = Displacement of [3H]alpha-BGT from nAChR in Apis mellifera (honeybee) head homogenates; assay type: tissue-based
[2] = Displacement of [3H]PCP from nAChR in Apis mellifera (honeybee0 head homogenates; assay type: tissue-based
Apis mellifera = assay: Displacement of [3H]PCP from nAChR in Apis mellifera (honeybee) head homogenates at 1000 uM; assay type: tissue-based
Musca domestica [3] = assay: Insecticidal activity against 3 to 5 day old female Musca domestica (house fly) assessed as compound level causing insect mortality per female applied through intrathoracic injection measured after 24 hr; assay type: functional
Musca domestica [4] = assay: Insecticidal activity against 3 to 5 day old female Musca domestica (house fly) assessed as induction of convulsions and paralysis applied through intrathoracic injection measured after 24 hr; assay type: functional, organism-based
Musca domestica [5] = assay: Insecticidal activity against 3 to 5 day old female Musca domestica (house fly) assessed as compound level causing insect mortality per female applied topically on notum measured after 24 hr; assay type: functional
Musca domestica [6] = assay: Insecticidal activity against 3 to 5 day old female Musca domestica (house fly) assessed as induction of leg tremors at >2 ug/female fly applied topically on notum measured after 24 hr; assay type: functional, organism-based
Musca domestica [7] = assay: Insecticidal activity against 3 to 5 day old female Musca domestica (house fly) assessed as induction of anesthetic effect applied topically on notum measured after 24 hr; assay type: functional, organism-based

SMILES | IC50 [1] [µM] | IC50 [2] [µM] | other results
O=[N+]([O-])/C=C1\NCCN1Cc1ccc(Cl)nc1 | 0.026 | 953 | 
COc1cc2c3cc1Oc1cc(ccc1O)C[C@@H]1c4c(cc(OC)c(O)c4Oc4ccc(cc4)C[C@@H]3N(C)CC2)CC[N+]1(C)C | 3.35 | 0.636 | 
CSC(C)N1CCN/C1=C\[N+](=O)[O-] (stereo unspecified) | 249 | 336 | 
O=[N+]([O-])C=C1NCCCS1 | 1360 | 231 | 
C/C(=N\C#N)N(C)Cc1ccc(Cl)nc1 [ACETAMIPRID] | 8.83 | 277 | 
C[N+](C)(C)CCOC(N)=O [CARBACHOL] | 90.1 | > 1000 | inhibition (Apis mellifera): 8.1%
CN(C)CCCN1c2ccccc2Sc2ccc(Cl)cc21 [CHLORPROMAZINE] | 151 | 5.8 | 
CCC[C@H]1CCCCN1 [CONIINE] | 166 | 5.56 | 
O=c1cccc2n1C[C@@H]1CNC[C@H]2C1 [CYTISINICLINE] | 0.267 | > 1000 | inhibition (Apis mellifera): 12.6%
C[N+]1(C)CCN(c2ccccc2)CC1 [DIMETHYLPHENYLPIPERAZINIUM IODIDE] | 7.35 | 385 | 
c1cncc(C2CCCCN2)c1 (stereo not drawn) [DL-ANABASINE] | 1.98 | 4.99 | 
O=[N+]([O-])/N=C1\NCCN1Cc1ccc(Cl)nc1 [IMIDACLOPRID] | 1.95 | 386 | LD50 (Musca domestica [3]): 0.553 µg; Activity (Musca domestica [4]): Active
CNC1(c2ccccc2Cl)CCCCC1=O (stereo unspecified) [KETAMINE] | 237 | 83.2 | 
CN1[C@@H](CC(=O)c2ccccc2)CCC[C@H]1C[C@H](O)c1ccccc1 [LOBELINE] | 4.6 | 158 | 
CNC1(C)C2CCC(C2)C1(C)C (stereo unspecified) [MECAMYLAMINE] | 346 | 8.98 | 
CN(C)C1CSSC1 [NEREISTOXIN] | 228 | 30.7 | LD50 (Musca domestica [5]): 0.49 µg; Activity (Musca domestica [6]): Active; Activity (Musca domestica [7]): Active
CN1CCC[C@H]1c1cccnc1 [NICOTINE] | 1.55 | 1.14 | LD50 (Musca domestica [5]): 14.8 µg
CCN(Cc1ccc(Cl)nc1)/C(=C/[N+](=O)[O-])NC [NITENPYRAM] | 61.3 | 27.6 | 
c1ccc(C2(N3CCCCC3)CCCCC2)cc1 [PHENCYCLIDINE] | 2.55 | 0.029 | LD50 (Musca domestica [5]): 18.4 µg; Activity (Musca domestica [7]): Active
CN1CCC[C@@H]1c1cccnc1 [R-NICOTINE] | 22.1 | 35 | 
c1csc(C2(N3CCCCC3)CCCCC2)c1 [TENOCYCLIDINE] | 1.38 | 0.082 | LD50 (Musca domestica [5]): 25 µg; Activity (Musca domestica [7]): Active
O=C1N(Cc2ccccc2)C2C[S+]3CCCC3C2N1Cc1ccccc1 (stereo unspecified) [TRIMETHAPHAN CAMSYLATE] | 0.798 | 440 | 
